For 25 compounds, pEC50 results are on record in patent US11286243B2 (GLOBAL BLOOD THERAPEUTICS, INC., priority 2018, dated 2022).

The structures appear in SMILES notation.

This test concerns the target T1, human ferroportin (Homo sapiens, UniProt Q9NP59).
T1 construct: luciferase reporter (probably NanoLuc: read with the Nano-Glo Luciferase Assay System); expressed in transfected cells; host or cells: CHO cells, stably transfected, doxycycline-inducible expression
T1 sequence (Q9NP59 1-571): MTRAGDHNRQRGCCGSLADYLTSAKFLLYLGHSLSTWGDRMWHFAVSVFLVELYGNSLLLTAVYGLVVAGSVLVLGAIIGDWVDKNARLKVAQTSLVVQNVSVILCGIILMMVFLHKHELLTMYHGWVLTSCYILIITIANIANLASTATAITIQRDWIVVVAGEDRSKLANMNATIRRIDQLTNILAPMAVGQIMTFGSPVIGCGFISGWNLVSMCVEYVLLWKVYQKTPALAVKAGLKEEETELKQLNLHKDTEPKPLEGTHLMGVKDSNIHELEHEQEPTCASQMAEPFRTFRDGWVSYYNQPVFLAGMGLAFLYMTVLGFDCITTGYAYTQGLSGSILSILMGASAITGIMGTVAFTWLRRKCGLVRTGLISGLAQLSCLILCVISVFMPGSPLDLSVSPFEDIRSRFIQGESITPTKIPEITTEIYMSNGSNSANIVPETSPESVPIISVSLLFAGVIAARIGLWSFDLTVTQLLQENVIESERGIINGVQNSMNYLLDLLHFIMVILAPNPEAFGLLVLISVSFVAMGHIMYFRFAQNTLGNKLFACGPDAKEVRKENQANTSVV
Briefly: In-vitro ferroportin internalization assay (luciferase reporter). The class given is cell-based. To be noted: average pEC50; stably-transfected CHO cell line expressing human ferroportin tagged to a luciferase reporter; 6 h incubation with test compounds. On the procedure: The protocol for this assay is generally as described in WO2018/128828, incorporated herein by reference in its entirety. Functional internalization of ferroportin protein was measured using a stably-transfected CHO cell line expressing the human ferroportin tagged to a luciferase reporter. Cells were plated for 24 h in the presence of ferric ammonium citrate (FAC). Ferroportin protein expression was induced with doxycycline for 24 h. The next day, the compounds were added. Test compounds were dissolved in DMSO. Cells were incubated with the test compounds for 6 h, and subsequently luciferase activity was measured using the Nano-Glo Luciferase Assay System and Glomax (Promega, Madison, Wis.).
The average pEC50 was determined for the test compounds.
For orientation: A reporter such as luciferase makes a cellular process visible.
`COC(=O)c1ccc2[nH]c(CCNCCc3nc4c(NCc5ncccc5F)ncnc4s3)nc2c1` [Compound 27, Methyl 2-(2-{[2-(7-{[(3-fluoropyridin-2-yl)methyl]amino}-[1,3]thiazolo[5,4-d]pyrimidin-2-yl)ethyl]amino}ethyl)-1H-1,3-benzodiazole-5-carboxylate] displayed a pEC50 of 6.2.

As for `C[C@@H](Cc1nc2c(NCc3ncccc3F)ncnc2s1)NCCc1nc2ccccc2[nH]1` [Compound 28, 2-[(2S)-2-{[2-(1H-1,3-benzodiazol-2-yl)ethyl]amino}propyl]-N-[(3-fluoropyridin-2-yl)methyl]-[1,3]thiazolo[5,4-d]pyrimidin-7-amine], the pEC50 came to 6.3. In the case of `CC(=O)NOc1nc(NCc2ncccc2F)c2nc(CCNCCc3nc4ccccc4[nH]3)sc2n1` [Compound 29, N-{[2-(2-{[2-(1H-1,3-benzodiazol-2-yl)ethyl]amino}ethyl)-7-{[(3-fluoropyridin-2-yl)methyl]amino}-[1,3]thiazolo[5,4-d]pyrimidin-5-yl]oxy}acetamide] it was 5.2; in that of `Fc1cccnc1CNc1ncnc2sc(C(F)CNCCc3nc4ccccc4[nH]3)nc12` (stereo not shown) [Compound 30, 2-(2-{[2-(1H-1,3-benzodiazol-2-yl)ethyl]amino}-1-fluoroethyl)-N-[(3-fluoropyridin-2-yl)methyl]-[1,3]thiazolo[5,4-d]pyrimidin-7-amine], 7.3. In the case of `Cc1nc(NCc2ncccc2F)c2nc(CCNCCc3nc4ccccc4[nH]3)sc2n1` [Compound 31, 2-(2-{[2-(1H-1,3-benzodiazol-2-yl)ethyl]amino}ethyl)-N-[(3-fluoropyridin-2-yl)methyl]-5-methyl-[1,3]thiazolo[5,4-d]pyrimidin-7-amine] it was 5.6; in that of `[N-]=[N+]=Nc1cccnc1CNc1ncnc2sc(CCNCCc3nc4cc(I)ccc4[nH]3)nc12` [Compound 32, N-[(3-azidopyridin-2-yl)methyl]-2-(2-{[2-(5-iodo-1H-1,3-benzodiazol-2-yl)ethyl]amino}ethyl)-[1,3]thiazolo[5,4-d]pyrimidin-7-amine], 6.9; in that of `Fc1cccnc1CNc1ncnc2sc(CCNCCc3nc4ncccc4[nH]3)nc12` [Compound 33, N-[(3-fluoropyridin-2-yl)methyl]-2-{2-[(2-{1H-imidazo[4,5-b]pyridin-2-yl}ethyl)amino]ethyl}-[1,3]thiazolo[5,4-d]pyrimidin-7-amine], 6.2. Compound `O=c1c2ccccc2[nH]n1CCNCCc1nc2c(NCc3ncccc3F)ncnc2s1` [Compound 34, 2-(2-{[2-(7-{[(3-fluoropyridin-2-yl)methyl]amino}-[1,3]thiazolo[5,4-d]pyrimidin-2-yl)ethyl]amino}ethyl)-2,3-dihydro-1H-indazol-3-one] came in with a pEC50 of 5.1.

Regarding `Fc1cccnc1CNc1ncnc2sc(CCNCCc3ncc(-c4ccccc4)[nH]3)nc12` [Compound 35, N-[(3-fluoropyridin-2-yl)methyl]-2-(2-{[2-(5-phenyl-1H-imidazol-2-yl)ethyl]amino}ethyl)-[1,3]thiazolo[5,4-d]pyrimidin-7-amine], the pEC50 came to 7.1.

The compound `Oc1nc(NCc2ncccc2F)c2nc(CCNCCc3nc4ccccc4[nH]3)oc2n1` [Compound 36, 2-(2-{[2-(1H-1,3-benzodiazol-2-yl)ethyl]amino}ethyl)-7-{[(3-fluoropyridin-2-yl)methyl]amino}-[1,3]oxazolo[5,4-d]pyrimidin-5-ol] came in with a pEC50 of 6.4. In the case of `Fc1cccnc1CNc1ncnc2sc(CCNCCc3nc4cnccc4[nH]3)nc12` [Compound 37, N-[(3-fluoropyridin-2-yl)methyl]-2-{2-[(2-{1H-imidazo[4,5-c]pyridin-2-yl}ethyl)amino]ethyl}-[1,3]thiazolo[5,4-d]pyrimidin-7-amine] it was 5.6; in that of `CC(NCCc1nc2c(NCc3ncccc3F)ncnc2s1)c1ccccc1O` (stereo not shown) [Compound 38, 2-(1-{[2-(7-{[(3-fluoropyridin-2-yl)methyl]amino}-[1,3]thiazolo[5,4-d]pyrimidin-2-yl)ethyl]amino}ethyl)phenol], 4.9; in that of `C#CCCC1(CCC(=O)NCc2ccc3[nH]c(CCNCCc4nc5c(NCc6ncccc6F)ncnc5s4)nc3c2)N=N1` [Compound 39, 3-[3-(but-3-yn-1-yl)-3H-diazirin-3-yl]-N-{[2-(2-{[2-(7-{[(3-fluoropyridin-2-yl)methyl]amino}-[1,3]thiazolo[5,4-d]pyrimidin-2-yl)ethyl]amino}ethyl)-1H-1,3-benzodiazol-5-yl]methyl}propanamide], 6.9.

`CC(Cc1nc2ccccc2[nH]1)NCCc1nc2c(NCc3ncccc3F)ncnc2s1` (stereo not shown) [Compound 40, 2-(2-{[1-(1H-1,3-benzodiazol-2-yl)propan-2-yl]amino}ethyl)-N-[(3-fluoropyridin-2-yl)methyl]-[1,3]thiazolo[5,4-d]pyrimidin-7-amine] gave a pEC50 of 6.2.

In the case of `CC(CNCCc1nc2c(NCc3ncccc3F)ncnc2s1)c1nc2ccccc2[nH]1` (stereo not shown) [Compound 41, 2-(2-{[2-(1H-1,3-benzodiazol-2-yl)propyl]amino}ethyl)-N-[(3-fluoropyridin-2-yl)methyl]-[1,3]thiazolo[5,4-d]pyrimidin-7-amine], the pEC50 was found to be 7.2. As for `Fc1cccnc1CNc1ncnc2sc(CCNCCc3ncc[nH]3)nc12` [Compound 42, N-[(3-fluoropyridin-2-yl)methyl]-2-(2-{[2-(1H-imidazol-2-yl)ethyl]amino}ethyl)-[1,3]thiazolo[5,4-d]pyrimidin-7-amine], the figure is 7.3; as for `Fc1cccnc1CNc1ncnc2sc(CCNCCc3ncc(Cc4ccccc4)[nH]3)nc12` [Compound 43, 2-(2-{[2-(5-benzyl-1H-imidazol-2-yl)ethyl]amino}ethyl)-N-[(3-fluoropyridin-2-yl)methyl]-[1,3]thiazolo[5,4-d]pyrimidin-7-amine], 8.4.

For the compound `Oc1ccccc1CCNCCc1nc2c(NCc3ncccc3F)ncnc2s1` [Compound 44, 2-(2-{[2-(7-{[(3-fluoropyridin-2-yl)methyl]amino}-[1,3]thiazolo[5,4-d]pyrimidin-2-yl)ethyl]amino}ethyl)phenol], the pEC50 is recorded as 4.9. In the case of `Fc1cccnc1CNc1ncnc2sc(CCNCC(F)c3nc4ccccc4[nH]3)nc12` (stereo not shown) [Compound 45, 2-(2-{[2-(1H-1,3-benzodiazol-2-yl)-2-fluoroethyl]amino}ethyl)-N-[(3-fluoropyridin-2-yl)methyl]-[1,3]thiazolo[5,4-d]pyrimidin-7-amine] it was 6.4. In the case of `Cc1cc2nc(CCNCCc3nc4c(NCc5ncccc5F)ncnc4s3)[nH]c2cc1C` [Compound 46, 2-(2-{[2-(5,6-dimethyl-1H-1,3-benzodiazol-2-yl)ethyl]amino}ethyl)-N-[(3-fluoropyridin-2-yl)methyl]-[1,3]thiazolo[5,4-d]pyrimidin-7-amine] it was 7.1; in that of `O=C(CCC1(CCc2cn(CCCNC(=O)c3ccc4c(c3)C3(OC4=O)c4ccc(O)cc4Oc4cc(O)ccc43)nn2)N=N1)Nc1ccc2[nH]c(CCNCCc3nc4c(NCc5ncccc5F)ncnc4s3)nc2c1` [Compound 47, N-[3-(4-{2-[3-(2-{[2-(2-{[2-(7-{[(3-fluoropyridin-2-yl)methyl]amino}-[1,3]thiazolo[5,4-d]pyrimidin-2-yl)ethyl]amino}ethyl)-1H-1,3-benzodiazol-5-yl]carbamoyl}ethyl)-3H-diazirin-3-yl]ethyl}-1H-1,2,3-triazol-1-yl)propyl]-3′,6′-dihydroxy-3-oxo-3H-spiro[2-benzofuran-1,9′-xanthene]-6-carboxamide], 5.8; in that of `Fc1cccnc1CNc1nccc2oc(CCNCCc3ncc(-c4ccccc4)[nH]3)nc12` [Compound 48, N-[(3-fluoropyridin-2-yl)methyl]-2-(2-{[2-(5-phenyl-1H-imidazol-2-yl)ethyl]amino}ethyl)-[1,3]oxazolo[4,5-c]pyridin-4-amine], 7. As for `Fc1cccnc1CNc1ncnc2sc(CCNCc3nc(-c4ccccc4)c[nH]3)nc12` [Compound 49, N-[(3-fluoropyridin-2-yl)methyl]-2-(2-{[(4-phenyl-1H-imidazol-2-yl)methyl]amino}ethyl)-[1,3]thiazolo[5,4-d]pyrimidin-7-amine], the figure is 6.9; as for `OC(CNCCc1nc2c(NCc3ncccc3F)ncnc2s1)c1nc2ccccc2[nH]1` (stereo not shown) [Compound 50, 1-(1H-1,3-benzodiazol-2-yl)-2-{[2-(7-{[(3-fluoropyridin-2-yl)methyl]amino}-[1,3]thiazolo[5,4-d]pyrimidin-2-yl)ethyl]amino}ethan-1-ol], 5.1. Take `Fc1cccnc1CNc1ncnc2sc(CCNCCc3ncc(C4CC4)[nH]3)nc12` [Compound 51, 2-(2-{[2-(5-cyclopropyl-1H-imidazol-2-yl)ethyl]amino}ethyl)-N-[(3-fluoropyridin-2-yl)methyl]-[1,3]thiazolo[5,4-d]pyrimidin-7-amine]: the pEC50 is 8.2.

A word on the pEC50: it is the EC50 on a negative log10 scale, so that one unit is a factor of ten. Low readings indicate a large EC50, high ones a small EC50.
